Usually EC50 stands for the concentration at which the effect is half-maximal.

The source made the active and inactive calls. The calls are words filed in the database; no cut-off is given here.

Series [1] concerns the target T1, Oxysterols receptor LXR-beta (Rattus norvegicus, UniProt Q62755).
T1 sequence (Q62755 whole entry): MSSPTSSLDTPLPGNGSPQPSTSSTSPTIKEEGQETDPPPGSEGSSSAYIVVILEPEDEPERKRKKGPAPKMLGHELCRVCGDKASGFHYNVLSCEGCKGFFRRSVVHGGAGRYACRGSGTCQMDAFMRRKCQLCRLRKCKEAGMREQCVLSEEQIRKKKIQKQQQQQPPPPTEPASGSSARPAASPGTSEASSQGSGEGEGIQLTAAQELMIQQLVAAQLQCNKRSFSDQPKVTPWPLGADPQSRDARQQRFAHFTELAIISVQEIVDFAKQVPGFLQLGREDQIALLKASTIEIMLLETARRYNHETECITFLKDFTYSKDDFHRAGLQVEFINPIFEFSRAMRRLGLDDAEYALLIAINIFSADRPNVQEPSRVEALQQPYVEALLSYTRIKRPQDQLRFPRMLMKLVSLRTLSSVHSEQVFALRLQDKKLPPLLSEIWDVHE
The experiment in a line: Transactivation of rat LXRbeta expressed in HEK293FT cells measured after 14 to 18 hrs by dual-luciferase reporter gene assay. Type of series: cell-based. Background: In a reporter assay the amount or activity of a reporter protein is the signal.

For series [2], the target named is T2, Oxysterols receptor LXR-beta (Rattus norvegicus) (UniProt Q62755).
T2 sequence (whole entry): T1 sequence (Q62755 whole entry)
The experiment in a line: Transactivation of rat LXRbeta expressed in HEK293FT cells measured after 14 to 18 hrs by dual-luciferase reporter gene assay relative to T0901317. Type of series: cell-based.

Series [3] addresses T2, Oxysterols receptor LXR-beta (Rattus norvegicus). Description: Transactivation of rat LXRbeta expressed in HEK293FT cells at 5 uM measured after 14 to 18 hrs by dual-luciferase reporter gene assay. Type of series: cell-based.
Series [4] shares this target. Description: Transactivation of rat LXRbeta expressed in HEK293FT cells co-expressing RXR at 5 uM measured after 14 to 18 hrs by dual-luciferase reporter gene assay. Type of series: cell-based.
For series [5], the target named is T3, Oxysterols receptor LXR-alpha (Rattus norvegicus, UniProt Q62685).
T3 sequence (Q62685 whole entry): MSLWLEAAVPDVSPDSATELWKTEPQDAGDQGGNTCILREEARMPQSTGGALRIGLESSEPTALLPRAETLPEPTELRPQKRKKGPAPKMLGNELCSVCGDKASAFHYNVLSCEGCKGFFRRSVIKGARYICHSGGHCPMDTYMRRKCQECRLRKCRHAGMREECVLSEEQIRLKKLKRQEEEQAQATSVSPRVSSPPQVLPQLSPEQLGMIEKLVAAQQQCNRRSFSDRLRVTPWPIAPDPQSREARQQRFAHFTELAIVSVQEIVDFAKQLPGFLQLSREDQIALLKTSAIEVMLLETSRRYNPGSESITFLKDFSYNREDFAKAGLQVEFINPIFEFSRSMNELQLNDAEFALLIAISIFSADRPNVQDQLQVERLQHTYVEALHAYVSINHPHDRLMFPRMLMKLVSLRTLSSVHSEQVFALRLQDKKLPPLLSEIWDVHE
Description: Transactivation of rat LXRalpha expressed in HEK293FT cells co-expressing RXR at 5 uM measured after 14 to 18 hrs by dual-luciferase reporter gene assay. It counts as cell-based.

The nature of series [6]: Ratio of compound effect for transactivation of rat LXRalpha expressed in HEK293FT cells to compound effect for transactivation of rat LXRbeta expressed in HEK293FT cells.

As to `C[C@H](C[C@@H]1CCCCN(C)C1=O)[C@H]1CC[C@H]2[C@@H]3CC=C4C[C@@H](O)CC[C@]4(C)[C@H]3CC[C@]12C`, the EC50 in series [1] (read-out: EC50) came out at 0.462 µM. The compound also registered an Efficacy in series [2] of 80%.

As to `CCN1CCC[C@@H](C[C@@H](C)[C@H]2CC[C@H]3[C@@H]4CC=C5C[C@@H](O)CC[C@]5(C)[C@H]4CC[C@]23C)C1=O`, the EC50 in series [1] (read-out: EC50) is 0.643 µM. This compound also showed an Efficacy in series [2] of 62%.

`CCN(CC)C(=O)CC[C@@H](C)[C@H]1CC[C@H]2[C@@H]3CC=C4C[C@@H](O)CC[C@]4(C)[C@H]3CC[C@]12C`: the result in series [3] and in series [4] was Active. Besides, the outcome in series [5] was Active. In addition, the EC50 in series [1] (read-out: EC50) was 0.344 µM. The compound also returned an Efficacy in series [2] of 211%.

With `C[C@H](CCC(=O)N1CCCC1)[C@H]1CC[C@H]2[C@@H]3CC=C4C[C@@H](O)CC[C@]4(C)[C@H]3CC[C@]12C`, the outcome in series [3] was Active. Besides, the EC50 in series [1] (read-out: EC50) turned out to be 0.165 µM. In series [2], this compound came in with an Efficacy of 99%.

For `C[C@H](C[C@@H]1CCN(C)C1=O)[C@H]1CC[C@H]2[C@@H]3CC=C4C[C@@H](O)CC[C@]4(C)[C@H]3CC[C@]12C`, the EC50 result in series [1] is “Not Active”.

In series [2], `CCN(C)C(=O)C(C)C[C@@H](C)[C@H]1CC[C@H]2[C@@H]3CC=C4C[C@@H](O)CC[C@]4(C)[C@H]3CC[C@]12C` (stereo in doubt; 11) [listing 1 of 2 here] yielded an Efficacy of 65%.

As to `C[C@H](C[C@H]1CCCN(C)C1=O)[C@H]1CC[C@H]2[C@@H]3CC=C4C[C@@H](O)CC[C@]4(C)[C@H]3CC[C@]12C`, the EC50 in series [1] (read-out: EC50) came to 0.239 µM.

In the case of `CCCN(C)C(=O)CC[C@@H](C)[C@H]1CC[C@H]2[C@@H]3CC=C4C[C@@H](O)CC[C@]4(C)[C@H]3CC[C@]12C`, in series [4], the result was Active. In addition, in series [5], the result was Active. For the same compound, the EC50 in series [1] (read-out: EC50) was found to be 1.02 µM. In series [2], this compound had an Efficacy of 102%.

Take `CC(C)NC(=O)CC[C@@H](C)[C@H]1CC[C@H]2[C@@H]3CC=C4C[C@@H](O)CC[C@]4(C)[C@H]3CC[C@]12C`: the outcome in series [3] was Active. In series [1] (read-out: EC50), the EC50 came out at 0.862 µM. Also, the Efficacy in series [2] turned out to be 85%.

Regarding `CC(C)N(C(=O)CC[C@@H](C)[C@H]1CC[C@H]2[C@@H]3CC=C4C[C@@H](O)CC[C@]4(C)[C@H]3CC[C@]12C)C(C)C`, the result in series [3] and in series [4] was Active. For the same compound, the Ratio in series [6] is on record as 2. For the same compound, the result in series [5] was Active. Also, in series [1] (read-out: EC50), the EC50 came out at 1.11 µM. Besides, the Efficacy in series [2] came to 148%.

As to `C[C@H](CCC(=O)N(C)C)[C@H]1CC[C@H]2[C@@H]3CC=C4C[C@@H](O)CC[C@]4(C)[C@H]3CC[C@]12C`, the outcome in series [3] was Active. The EC50 in series [1] (read-out: EC50) was in the range of 0.124 to 0.464 µM. Besides, in series [2], the Efficacy was 100%.

As for `O=S(=O)(c1ccccc1)N(CC(F)(F)F)c1ccc(C(O)(C(F)(F)F)C(F)(F)F)cc1`, the Efficacy in series [2] stood at 98%.

As to `CCN(C)C(=O)C(C)C[C@@H](C)[C@H]1CC[C@H]2[C@@H]3CC=C4C[C@@H](O)CC[C@]4(C)[C@H]3CC[C@]12C` (stereo in doubt; 10) [listing 1 of 2 here], the EC50 in series [1] (read-out: EC50) came to 3.9 µM.

For the compound `CCN(C)C(=O)CC[C@@H](C)[C@H]1CC[C@H]2[C@@H]3CC=C4C[C@@H](O)CC[C@]4(C)[C@H]3CC[C@]12C`, in series [4], the result was Active. Also, the outcome in series [5] was Active. Besides, the EC50 in series [1] (read-out: EC50) was 0.786 µM. Also, the Efficacy in series [2] stood at 108%.

On to `CCN(C)C(=O)C(C)C[C@@H](C)[C@H]1CC[C@H]2[C@@H]3CC=C4C[C@@H](O)CC[C@]4(C)[C@H]3CC[C@]12C` (stereo in doubt; 10) [listing 2 of 2 here], for which the Efficacy in series [2] came out at 39%.

For the compound `C[C@H](C[C@@H]1CCCN(C)C1=O)[C@H]1CC[C@H]2[C@@H]3CC=C4C[C@@H](O)CC[C@]4(C)[C@H]3CC[C@]12C`, the EC50 result in series [1] is “Not Active”.

As for `C[C@H](C[C@H]1CCN(C)C1=O)[C@H]1CC[C@H]2[C@@H]3CC=C4C[C@@H](O)CC[C@]4(C)[C@H]3CC[C@]12C`, in series [1] (read-out: EC50), the EC50 was found to be 1.29 µM.

Take `C[C@H](CCC(=O)N1CCCCC1)[C@H]1CC[C@H]2[C@@H]3CC=C4C[C@@H](O)CC[C@]4(C)[C@H]3CC[C@]12C`: the result in series [3] was Active. Besides, the EC50 in series [1] (read-out: EC50) stood at 0.127 µM. This compound showed an Efficacy in series [2] of 134%.

With `CCN(C)C(=O)C(C)C[C@@H](C)[C@H]1CC[C@H]2[C@@H]3CC=C4C[C@@H](O)CC[C@]4(C)[C@H]3CC[C@]12C` (stereo in doubt; 11) [listing 2 of 2 here], in series [1] (read-out: EC50), the EC50 was found to be 1.99 µM.

As to `CC(C)N(C)C(=O)CC[C@@H](C)[C@H]1CC[C@H]2[C@@H]3CC=C4C[C@@H](O)CC[C@]4(C)[C@H]3CC[C@]12C`, the outcome in series [4] was Active. The result in series [5] was Active. Moreover, the EC50 in series [1] (read-out: EC50) turned out to be 0.623 µM. In series [2], this compound came in with an Efficacy of 109%.

Values taken from ChEMBL document CHEMBL4339203, “Structural requirements of cholenamide derivatives as the LXR ligands” (Bioorg Med Chem Lett, 2019).
